Measurements from patent publication US9193995B2, “Compositions for detecting human interferon-alpha subtypes and methods of use” (UNITED STATES DEPARTMENT OF HEALTH AND HUMAN SERVICES, priority 2008, dated 2015).

Legend:
Assay in all cases: IFN subtype expression in response to TLR ligands (RT-PCR)
Format in all cases: cell-based, Human
monocytes, MDM and MDDC = details: 25 ug/ml Poly I:C, 10 ng/ml LPS, 1, 4 or 24 hours, FIG. 9A-C
Source text: (§1) To test whether expression of IFN subtypes varied among different cell types, the primers of the invention were used to determine expression patterns of IFN-alpha, IFN-lambda, IFN-beta and IFN-gamma in response to ligands of TLR 3 (poly I:C), 4 (LPS), 7 (imiquimod) and 9 (CpG). LPS (E. coli O111:B4), imiquimod, and poly I:C were purchased from EMD Chemicals (Gibbstown, N.J.). CpG types D35, K, and C, and control D35 GpC oligonucleotides were synthesized by the Food and Drug Administration Center for Biologics Evaluation and Research Facility for Biotechnology Resources. For both the D35 CpG and control GpC, the two bases at the 5′ and 3′ ends had nuclease-resistant phosphorothioate linkages.
(§2) Human peripheral blood monocytes, myeloid DC (mDC), plasmacytoid DC (pDC), and B cells were isolated. Elutriated monocytes and lymphocytes were obtained from the NIH Clinical Center Department of Transfusion Medicine (Bethesda, Md.) and the preparation was subjected to Ficoll-Hypaque (Sigma-Aldrich, St. Louis, Mo.) density centrifugation. Monocytes, mDC and pDC were purified with magnetic beads specific for CD14, CD1c, and CD303, respectively using an AutoMACS magnetic cell sorter (Miltenyi Biotec, Auburn, Calif.). […]

myeloid DC (mDC) = details: 10 uM Imiquimod, 6.5 ug/ml CpG A, 1, 4 or 24 hours, varied with donor, FIG. 9E
Source text: as §1, §2

plasmacytoid DC (pDC) = details: 10 uM Imiquimod, 6.5 ug/ml CpG A, 1, 4 or 24 hours, much higher levels than mDC
Source text: as §1, §2

| Compound | IFN expression in response to TLR ligand (monocytes, MDM and MDDC) | IFN expression in response to TLR ligand (myeloid DC (mDC)) | IFN expression in response to TLR ligand (plasmacytoid DC (pDC)) |
| --- | --- | --- | --- |
| poly I:C | expressed high levels of IFN-b, IFN-g, IFN-11, and to a lesser extent, IFN-l2 and IFN-a1 |  |  |
| CC(C)Cn1cnc2c(N)nc3ccccc3c21 [imiquimod] |  | expressed most IFN-a subtypes | expressed most IFN |
